{
  "source": "patent US20160166572A1",
  "about": "“BENEFICIAL EFFECTS OF Lp-PLA2 INHIBITORS IN TREATMENT OF DIABETIC RETINOPATHY AND AGE-RELATED MACULAR DEGENERATION” (Rowan University, priority 2014, published 2016)",
  "system": "ganglion cells in the GCL",
  "assay": "Extravasated IgG in retina (anti-swine IgG IHC) as evidence of BRB compromise, DMHC pigs",
  "assay_type": "in vivo, pig",
  "conditions": "Darapladib 10 mg/kg/d orally, 24 weeks",
  "protocol": "Briefly, after induction of diabetes by a single injection of Streptozotocin, animals were fed a high cholesterol diet. After a month of DMHC induction and acclimation, animals were randomly segregated to untreated DMHC and Darapladib-treated DMHC groups. Darapladib-treated pigs received 10 mg/kg/d of Darapladib orally. Three of the pigs were spared from DMHC induction and served as age-matched, non-DMHC normal controls. Twenty four weeks after acclimation, animals were euthanized and their brains and eyes were immediately removed. Brains were divided anteroposteriorly into anterior, middle and posterior regions. For each of these brain regions, 2-3 tissue blocks were generated for routine tissue fixation (10% formalin) or freezing and histological processing. The anterior cortical region comprised of anterior ⅔ of frontal lobe and anterior ⅓ of temporal lobe. […] Extravasated IgG was detected using biotinylated anti-swine IgG antibody (Vector laboratories, Inc., Catalogue # BA-9020; dilution 1:100). […] Slides were examined and photographed with a Nikon FXA microscope, and digital images were recorded using a Nikon DXM1200F digital camera and analyzed using MATLAB (MathWorks, Mass., USA) and NIS-elements software (Nikon, Melville, N.Y.). […] The percentage of IgG-positive ganglion cells relative to total ganglion cells in the GCL was calculated. […]",
  "data": [
    {"smiles": "CCN(CC)CCN(Cc1ccc(-c2ccc(C(F)(F)F)cc2)cc1)C(=O)Cn1c(SCc2ccc(F)cc2)nc(=O)c2c1CCC2", "note": "[Darapladib]", "values": [
      {"measurement": "plasma and IgG influx into retinal layers", "value": "curtailed plasma and IgG influx into retinal layers"},
      {"measurement": "percentage of IgG-positive ganglion cells relative to total ganglion cells in the GCL", "setting": "rank among treatment groups, FIG. 4D", "value": "followed by untreated controls and then the DMHC-Darapladib group"}
    ]}
  ]
}
